Common to all, as to type: cell-based
Assay [1] addresses Glutamate receptor ionotropic, kainate 2 (Homo sapiens) (UniProt Q13002). Briefly: Antagonist activity at GluK2 (unknown origin) transfected in HEK293 cells assessed as inhibition of L-glutamate-induced peak current responses at 1 mM compound added in background solution by electrophysiological analysis relative to control.
For assay [2] the target is unchanged. Briefly: Agonist activity at GluK2 (unknown origin) transfected in HEK293 cells assessed as current responses at 1 mM by electrophysiological analysis.
Assay [3] has the same target. Briefly: Antagonist activity at GluK2 (unknown origin) transfected in HEK293 cells assessed as inhibition of L-glutamate-induced peak current response at 1 mM compound added in background and L-glutamate solution by electrophysiological analysis relative to control.

Each structure is given as a SMILES string. Calls of active or inactive are those of the source. The calls are words filed in the database; no cut-off is given here.

Sequence of Glutamate receptor ionotropic, kainate 2 (Homo sapiens) (Q13002 whole entry): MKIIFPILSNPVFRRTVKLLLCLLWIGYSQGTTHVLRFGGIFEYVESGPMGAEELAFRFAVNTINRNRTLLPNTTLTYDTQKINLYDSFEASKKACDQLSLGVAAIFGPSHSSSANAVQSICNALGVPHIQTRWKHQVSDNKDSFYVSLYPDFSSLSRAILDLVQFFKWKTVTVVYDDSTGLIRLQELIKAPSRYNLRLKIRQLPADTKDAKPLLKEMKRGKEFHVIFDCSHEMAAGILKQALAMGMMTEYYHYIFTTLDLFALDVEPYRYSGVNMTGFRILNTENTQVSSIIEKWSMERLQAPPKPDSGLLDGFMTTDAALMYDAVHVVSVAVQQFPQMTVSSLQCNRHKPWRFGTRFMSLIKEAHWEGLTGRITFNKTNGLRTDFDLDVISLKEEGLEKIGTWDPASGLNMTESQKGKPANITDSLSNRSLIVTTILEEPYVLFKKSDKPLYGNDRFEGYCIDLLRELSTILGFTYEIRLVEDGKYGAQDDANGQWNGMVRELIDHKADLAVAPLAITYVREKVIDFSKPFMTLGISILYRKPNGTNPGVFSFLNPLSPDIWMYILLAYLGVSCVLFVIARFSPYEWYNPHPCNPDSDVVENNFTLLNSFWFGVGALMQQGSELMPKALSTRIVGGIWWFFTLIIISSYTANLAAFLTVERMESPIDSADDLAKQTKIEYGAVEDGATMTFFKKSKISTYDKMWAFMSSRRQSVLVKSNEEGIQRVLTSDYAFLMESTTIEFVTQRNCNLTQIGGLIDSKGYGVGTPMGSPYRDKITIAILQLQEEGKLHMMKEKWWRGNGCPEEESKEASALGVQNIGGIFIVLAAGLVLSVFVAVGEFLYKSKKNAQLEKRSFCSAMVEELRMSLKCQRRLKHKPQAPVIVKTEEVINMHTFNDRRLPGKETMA

Turning to `C[C@@H](CC(=O)O)[C@H](N)C(=O)O`, the inhibition in assay [1] amounted to 38%. Further, the outcome in assay [2] was inactive.

Turning to `N[C@H](C(=O)O)[C@H](CC(=O)O)c1ccccc1`, the inhibition result in assay [1] is “inactive”.

As to `CC(C)C[C@@H](CC(=O)O)[C@H](N)C(=O)O`, the inhibition result in assay [1] was “inactive”.

For the compound `CCC[C@@H](CC(=O)O)[C@H](N)C(=O)O`, the inhibition in assay [1] came out at 95%.

In the case of `CC[C@@H](CC(=O)O)[C@H](N)C(=O)O`, the inhibition in assay [3] was 53%; in assay [1], 46%. Further, in assay [2], the outcome was inactive.

Usually inhibition stands for the percentage by which the read-out fell short of the control.

The values are drawn from ChEMBL document CHEMBL3421587, “Discovery of novel small-molecule antagonists for GluK2” (Bioorg Med Chem Lett, 2015).
